Test results: patent US6916802B2, “Amino ceramide-like compounds and therapeutic methods of use” (Genzyme Corporation, priority 2002, dated 2005)
Several values for one entry are separate records, joined by “and”; a condition that tells them apart may be missing. Equal values may be shown once. Marks after values point to notes of the source that are not given here.

Experiments:
[1] = tested on: GlcCer synthase of MDCK cell homogenates; experiment: Inhibition of ceramide glucosyltransferase (GlcCer synthase) of MDCK cell homogenates; format: biochemical, canine; conditions: for Inhibition at 5 μM: 5 μM inhibitor; for Inhibition at 5 μM / % Inhibition at 80 μM: triplicate ± SD, samples partly isomer mixtures; for % Inhibition at 80 μM: 80 μM inhibitor; for inhibition of GlcCer synthase by nonionic ceramide-like compounds: 20 μM
Experimental: Assay of sphingolipid enzymes. The inhibitors were evaluated for their effectiveness against the GlcCer synthase of MDCK cell homogenates by incubation in a thermostatted ultrasonic bath (Radin N. S. et al., “Ultrasonic Baths as Substitutes for Shaking Incubator Baths,” Enzyme, 45:67-70 (1991)) with octanoyl sphingosine and uridinediphospho[^3H]glucose (Shukla, G. S. et al., “Glucosylceramide Synthase of Mouse Kidney: Further Characterization and Improved Assay Method,” Arch. Biochem. Biophys., 283:372-378 (1990)). The lipoidal substrate (85 μg) was added in liposomes made from 0.57 mg dioleoylphosphatidylcholine and 0.1 mg of Na sulfatide. Confluent cells were washed, then homogenized with a micro-tip sonicator at 0° C. for 3×30 sec; ˜0.2 mg of protein was used in each assay tube. In the case of the aromatic inhibitors, the test compound was simply evaporated to dryness from solution in the incubation tube. […] The aliphatic inhibitors, which appeared to be less soluble in water, were added as part of the substrate liposomes.

[2] = tested on: 9L brain gliosarcoma cells; experiment: Tumor cell growth in vitro (sulforhodamine B), 9L; format: cell-based; conditions: for effectiveness on growth and survival of 9L cells, in words: FIG. 1
Experimental: Growth of cell lines. Comparisons of different inhibitors with regard to suppression of human cancer cell growth were made by the University of Michigan Cancer Center in vitro Drug Evaluation Core Laboratory. MCF-7 breast carcinoma cells, HT-29 colon adenocarcinoma cells, H-460 lung large cell carcinoma cells, and 9L brain gliosarcoma cells were grown in RPMI 1640 medium with 5% fetal bovine serum, 2 mM glutamine, 50 units/ml of penicillin, […] of streptomycin, and 0.1 mg/ml of neomycin. UMSCC-10A head and neck squamous carcinoma cells were grown in minimal essential medium with Earle salts and the same supplements. Medium components were from Sigma Chemical Co. Cells were plated in 96-well microtiter plates (1000 cells/well for H-460 and 9L cells, and 2000 cells/well for the other lines), and the test compounds were added 1 day later. The stock inhibitor solutions, 2 mM in 2 mM BSA, were diluted with different amounts of additional 2 mM BSA, then each solution was diluted 500-fold with growth medium to obtain the final concentrations indicated in the Figures and Tables.
Five days after plating the H-460 and 9L cells, or 6 days for the other lines, cell growth was evaluated by staining the adhering cells with sulforhodamine B and measuring the absorbance at 520 nm (Skehan, P. et al., “New Colorimetric Cytotoxicity Assay for Anticancer-Drug Screening,” J. Natl. Cancer Inst., 82:1107-1112 (1990)). The absorbance of the treated cultures is reported as percent of that of control cultures, to provide an estimate of the fraction of the cells that survived, or of inhibition of growth rate.

[3] = tested on: MDCK cells; experiment: Lipid changes in MDCK cells (GlcCer, ceramide, diacylglycerol); format: cell-based, canine
[4] = tested on: MDCK cells; experiment: MDCK cell growth (cellular protein per dish); format: cell-based, canine
Experimental: For the experiments with labeled thymidine, each 8.5 cm dish contained 500,000 Madin-Darby canine kidney (MDCK) cells in 8 ml of Dulbecco modified essential supplemented medium. […] The control cells were also incubated in the presence of BSA. The cells were washed with phosphate/saline and trichloroacetic acid, then scraped off the dishes, dissolved in alkali, and analyzed for protein and DNA incorporated tritium. [Methyl-^3H]thymidine (10 μCi) was added 4 h prior to harvesting.

[5] = tested on: Ceramide synthase; experiment: Ceramide synthase of MDCK homogenate; format: biochemical, canine
Experimental: Ceramide synthase was assayed with 1 μM [3-^3H]sphingosine (70,000 cpm, repurified by column chromatography), 0.2 mM stearoyl-CoA, 0.5 mM dithiothreitol, and ˜300 μg of MDCK homogenate protein in 25 mM phosphate-K^+ buffer, pH 7.4, in a total volume of 0.2 ml. The incubation (for 30 min) and TLC were carried out as above and the ceramide band was counted.

[6] = tested on: Acid SMase; experiment: Acid sphingomyelinase of MDCK cells; format: biochemical, canine
Experimental: Acid and neutral SMase assays were based on the procedures of Gatt et al. (Gatt, S. et al., “Assay of Enzymes of Lipid Metabolism With Colored and Fluorescent Derivatives of Natural Lipids,” Meth. Enzymol., 72:351-375 (1981)), using liposomes containing NBD-SM dispersed like the labeled ceramide (10 μM substrate and 30 μM lecithin). The assay medium for the neutral enzyme also contained 50 mM Tris-Cl^− (pH 7.4), 25 mM KCl, 5 mM MgCl2 and 0.29 mg of MDCK cell protein in a total volume of 0.25 ml. Incubation was at 37° C. for 30 min in the ultrasonic bath, then the fluorescent product, NBD-ceramide, was isolated by partitioning the assay mixture with 0.45 ml 2-propanol, 1.5 ml heptane, and 0.2 ml water. After centrifugation, a trace of contaminating NBD-SM was removed from 0.9 ml of the upper layer by washing with 0.35 ml water. The upper layer was analyzed with a fluorometer (460 nm excitation, 515 nm emission).
[…] The resultant ceramide was determined as above.

[7] = tested on: Neutral sphingomyelinase (SMase); experiment: Neutral sphingomyelinase of MDCK cells; format: biochemical, canine
Experimental: Acid and neutral SMase assays were based on the procedures of Gatt et al. (Gatt, S. et al., “Assay of Enzymes of Lipid Metabolism With Colored and Fluorescent Derivatives of Natural Lipids,” Meth. Enzymol., 72:351-375 (1981)), using liposomes containing NBD-SM dispersed like the labeled ceramide (10 μM substrate and 30 μM lecithin). […] Incubation was at 37° C. for 30 min in the ultrasonic bath, then the fluorescent product, NBD-ceramide, was isolated by partitioning the assay mixture with 0.45 ml 2-propanol, 1.5 ml heptane, and 0.2 ml water. After centrifugation, a trace of contaminating NBD-SM was removed from 0.9 ml of the upper layer by washing with 0.35 ml water. The upper layer was analyzed with a fluorometer (460 nm excitation, 515 nm emission).

[8] = tested on: neutral ceramidase; experiment: Neutral ceramidase of MDCK cell homogenate; format: biochemical, canine
Experimental: (§1) Acid and neutral ceramidases were assayed under conditions like those above, but the medium contained 110 μM [1-^14C]decanoyl sphingosine (10^5 cpm) in 340 μM dioleoylphosphatidylcholine liposomes and 0.34 mg of MDCK cellular protein homogenate. […] After 60 min in the ultrasonic bath, 3 ml of C-M 2:1, carrier decanoic acid, and 0.6 ml of 0.9% saline were added and the lipids in the lower layer were separated by TLC with C-HOAc 9:1. The liberated decanoic acid was scraped off the glass plate and counted.

[9] = tested on: acid ceramidase; experiment: Acid ceramidase of MDCK cell homogenate; format: biochemical, canine
Experimental: as §1

SMILES: CCCCCCCCCCCCCCCC(=O)NC(CN1CCOCC1)C(O)c1ccc(OC)cc1 (mixture of isomers) [BML-125]
- Inhibition at 5 μM [1]: 9 ± 3.0^e %

SMILES: CCCCCCCCCCCCCCCC(=O)NC(CN1CCCC1)C(O)c1ccc(OC)cc1 (mixture of isomers) [BML-126]
- IC50 ([2]; 9L, rounded off to one digit, read-out: Inhibition of tumor cell growth in vitro, IC50): 2000 nM
- Inhibition at 5 μM [1]: 54 ± 0.3^f %
- % Inhibition at 80 μM [1]: 60 ± 1.8^e %

SMILES: CCCCCCCCCCCCCC(=O)N[C@@H](C)[C@H](O)c1ccccc1 [D-erythro-N-myristoyl-2-amino-1-phenyl-1-propanol, reference compound]
- inhibition of GlcCer synthase by nonionic ceramide-like compounds [1]: did not inhibit

SMILES: CCCCCCCCCCCCC/C=C/[C@H](O)[C@@H](CN1CCOCC1)NC(=O)CCCCCCCCCCCCCCC [IV-181A]
- Inhibition at 5 μM [1]: 12 ± 0.2^g %

SMILES: CCCCCCCCCCCCC/C=C/[C@@H](O)[C@@H](CN1CCOCC1)NC(=O)CCCCCCCCCCCCCCC [IV-206A]
- Inhibition at 5 μM [1]: 73 ± 1.5^g %

SMILES: CCCCCCCCCCCCC/C=C/[C@H](O)[C@@H](CN1CCCC1)NC(=O)CCCCCCCCCCCCCCC [IV-230A]
- Inhibition at 5 μM [1]: 19 ± 2.1^g %

SMILES: CCCCCCCCCCCCCC=CC(O)C(CN1CCCC1)NC(=O)CCCCCCCCCCCCCCC [IV-231B, D-threo-1-pyrrolidino-1-deoxyceramide]
- GlcCer in cells (TLC) ([3]; 1 μM for 3 days): virtually no GlcCer was visible
- GlcCer in cells (TLC) ([3]; 0.02 to 1 μM for 3 days): great depletion of GlcCer
- ceramide accumulation (TLC) ([3]; 0.02 to 1 μM for 3 days): no ceramide accumulation
- all the GSLs in cells (TLC) ([3]; 5 days in 5 μM inhibitor): virtually undetectable
- ceramide concentration ([3]; depleted cells, 5 days in 5 μM inhibitor): 13.9±0.2 μg/mg protein
- degree of inhibition of GlcCer synthase ([1]; 3 μM, inhibitor incorporated into the substrate liposomes): 77±0.9%
- Inhibition at 5 μM [1]: 87 ± 0.4^g %
- effect on MDCK cell growth ([4]; 20 μM for 1 day or 1 μM for 3 days): no inhibitory effect
- effect on MDCK cell growth ([4]; 5 days in 5 μM inhibitor): no slowing of growth
- protein per dish ([4]; 5 days in 5 μM inhibitor, BSA complex): 3.30 ± 0.04 mg
- Ceramide Synthase, enzyme activity (% of control) ([5]; 5 μM): 90 ± 8 % of control
- Ceramide Synthase, enzyme activity (% of control) ([5]; 50 μM): 71 ± 18^a % of control
- Sphingomyelinase pH 4.5, enzyme activity (% of control) ([6]; 5 μM): 101 ± 7 % of control
- Sphingomyelinase pH 4.5, enzyme activity (% of control) ([6]; 50 μM): 112 ± 11 % of control
- Sphingomyelinase pH 7.1, enzyme activity (% of control) ([7]; 5 μM): 131 ± 3^b % of control
- Sphingomyelinase pH 7.1, enzyme activity (% of control) ([7]; 50 μM): 120 ± 3^b % of control
- Ceramidase pH 7.4, enzyme activity (% of control) ([8]; 5 μM): 116 ± 20 % of control
- Ceramidase pH 7.4, enzyme activity (% of control) ([8]; 50 μM): 112 ± 3 % of control
- Ceramidase pH 4.5, enzyme activity (% of control) ([9]; 5 μM): 106 ± 3 % of control
- Ceramidase pH 4.5, enzyme activity (% of control) ([9]; 50 μM): 113 ± 8 % of control

SMILES: CCCCCCCCCCCCC/C=C/[C@@H](O)[C@H](CO)NC(C)=O [N-acetylsphingosine, reference compound]
- inhibition of GlcCer synthase by nonionic ceramide-like compounds [1]: did not inhibit

SMILES: CCCCCCCCCC(=O)N[C@H](CN1CCOCC1)[C@H](O)c1ccccc1 [PDMP, 1R-phenyl-2R-decanoylamino-3-morpholino-1-propanol, reference compound]
- effectiveness on growth and survival of 9L cells, in words [2]: even weaker effectiveness
- Inhibition at 5 μM [1]: 16 ± 1.8^f %
- % Inhibition at 80 μM [1]: 90 ± 0.8^a %
- Ceramide Synthase, enzyme activity (% of control) ([5]; 5 μM): 99 ± 5 % of control
- Ceramide Synthase, enzyme activity (% of control) ([5]; 50 μM): 66 ± 9^a % of control
- Sphingomyelinase pH 4.5, enzyme activity (% of control) ([6]; 5 μM): 102 ± 3 % of control
- Sphingomyelinase pH 4.5, enzyme activity (% of control) ([6]; 50 μM): 100 ± 3 % of control
- Sphingomyelinase pH 7.1, enzyme activity (% of control) ([7]; 5 μM): 121 ± 13 % of control
- Sphingomyelinase pH 7.1, enzyme activity (% of control) ([7]; 50 μM): 108 ± 8 % of control
- Ceramidase pH 7.4, enzyme activity (% of control) ([8]; 5 μM): 116 ± 19 % of control
- Ceramidase pH 7.4, enzyme activity (% of control) ([8]; 50 μM): 105 ± 11 % of control
- Ceramidase pH 4.5, enzyme activity (% of control) ([9]; 5 μM): 97 ± 4 % of control
- Ceramidase pH 4.5, enzyme activity (% of control) ([9]; 50 μM): 133 ± 13^a % of control

SMILES: CCCCCCCCCCCCCCCC(=O)NC(CN1CCOCC1)C(O)c1ccccc1 (centres unmarked) [PPMP, reference compound]
- effectiveness on growth and survival of 9L cells, in words [2]: relatively weak effectiveness
- Inhibition at 5 μM ([1]; 5 µM): 32 ± 1.8^e % and 32 ± 0.7^f %
